According to ChEMBL document CHEMBL5727593, “Use of physiological cooling active ingredients, and agents containing such active ingredients” (2020):
pEC50: −log10 of the molar value.

Target: Transient receptor potential cation channel subfamily M member 8 (Homo sapiens, UniProt Q7Z2W7)
Test: The agonisation or antagonisation of the receptor can be quantified by means of a Ca2+-sensitive dye (e.g. FURA, Fluo-4, etc.). Agonists on their own bring about an increase in the Ca2+-signal; antagonists in the presence of, for example, menthol bring about a reduction in the Ca2+-signal (in each case detected by means of the Fluo-4 dye, which due to the Ca2+ has other fluorescent properties).To begin with, in a manner known per se, in cell culture flasks a fresh culture of transformed HEK cells is prepared. The HEK293-TRPM8 test cells are removed using trypsin from the cell culture flasks and 40 000 cells/well are sown with 100 μl medium in 96-well plates (Greiner #655948 Poly-D-lysine coated). In order to induce the TRPM8 receptor the growth medium tetracycline is mixed in (DMEM/HG, 10% FCS tetracycline-free, 4 mM L-glutamine, 15 μg/ml blasticidin, 100 μg/ml hygromycin B, 1 μg/ml tetracycline). The next day the cells are charged with Fluo-4Am dye and the test is performed. The procedure is as follows: Addition of 100 μl/well of dye solution Ca-4 Kit (RB 141, Molecular Devices) per 100 μl of medium (DMEM/HG, 10% FCS tetracycline-free, 4 mM L-glutamine, 15 μg/ml blasticidin, 100 μg/ml hygromycin B, 1 μg/ml tetracycline). Incubation in the incubator for 30 minutes/37° C./5% CO2, 30 minutes/RT. […]

Sequence of Transient receptor potential cation channel subfamily M member 8 (Q7Z2W7 whole entry): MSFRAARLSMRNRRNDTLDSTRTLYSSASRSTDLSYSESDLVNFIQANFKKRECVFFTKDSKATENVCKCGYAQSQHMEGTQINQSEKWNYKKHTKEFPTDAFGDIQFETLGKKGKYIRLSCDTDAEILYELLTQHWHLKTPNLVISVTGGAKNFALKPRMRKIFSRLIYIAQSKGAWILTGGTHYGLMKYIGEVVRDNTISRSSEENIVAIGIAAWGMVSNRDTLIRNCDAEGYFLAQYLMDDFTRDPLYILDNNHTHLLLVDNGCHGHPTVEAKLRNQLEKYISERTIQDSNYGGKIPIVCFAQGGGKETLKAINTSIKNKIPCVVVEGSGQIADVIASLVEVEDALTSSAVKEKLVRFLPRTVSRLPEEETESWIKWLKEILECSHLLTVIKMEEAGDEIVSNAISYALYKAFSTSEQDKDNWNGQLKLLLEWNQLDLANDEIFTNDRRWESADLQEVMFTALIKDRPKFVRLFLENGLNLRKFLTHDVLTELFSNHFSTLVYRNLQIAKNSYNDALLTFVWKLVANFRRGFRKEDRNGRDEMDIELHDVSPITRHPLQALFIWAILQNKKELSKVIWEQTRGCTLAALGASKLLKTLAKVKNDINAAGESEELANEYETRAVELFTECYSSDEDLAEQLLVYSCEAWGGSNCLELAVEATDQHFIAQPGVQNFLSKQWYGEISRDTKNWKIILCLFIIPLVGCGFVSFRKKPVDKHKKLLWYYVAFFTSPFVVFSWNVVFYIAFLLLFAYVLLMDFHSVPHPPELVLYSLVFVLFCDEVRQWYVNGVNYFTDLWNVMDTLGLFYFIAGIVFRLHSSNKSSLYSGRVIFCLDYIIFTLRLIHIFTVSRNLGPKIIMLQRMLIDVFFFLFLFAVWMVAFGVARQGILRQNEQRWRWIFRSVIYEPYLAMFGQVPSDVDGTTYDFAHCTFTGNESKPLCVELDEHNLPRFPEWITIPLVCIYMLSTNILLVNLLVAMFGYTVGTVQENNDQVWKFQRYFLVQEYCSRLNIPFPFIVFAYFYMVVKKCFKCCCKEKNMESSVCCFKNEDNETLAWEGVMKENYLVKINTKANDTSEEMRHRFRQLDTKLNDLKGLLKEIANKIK

pEC50	Structure (SMILES)
5.49	COc1cnc(-c2ccccn2)nc1OC(C)C
6.30	COc1cnc(-c2ccccn2)nc1NC(C)C(C)C (configuration not stated)
